Test system: KRAS21R G4
Assay: FRET melting assay, KRAS21R G4
Format: binding, human
Conditions: G4 0.2 μM, ligand 1 μM, K-cacodylate buffer pH 7.4, 60 mM K+
Protocol: Fluorescence resonance energy transfer (FRET) studies with DNA sequences labelled at the 5′ and 3′ ends, were conducted to evaluate the G4 DNA stabilizing properties of IQcs (at 0.1 to 5 μM ligand concentrations). The G4-forming sequence KRAS21R[11], together with T-loop, a 26-mer hairpin double-stranded DNA (ds-DNA) sequence were used in the first screening assay. Reproducible IQc dose-dependent melting curves (Sup. Inf.; Figure S3) and stabilization temperature (ΔTm) values were obtained (Figure 2 and Table S5).
Figure 2 FRET stabilization temperatures (ΔTm) of KRAS21R G4 and hairpin ds-DNA (T-loop) at 0.2 μM, in K-cacodylate buffer (pH = 7.4, 60 mM K^+), stabilized by IQc derivatives and TMPyP4 at 1 μM. ^a) SD ≤ 0.2°C. TEXT PRINTED IN THE PICTURE: TMPyP4: ΔTm / °C ^a) (T-Loop): 16.0; ΔTm / °C ^a) (KRAS21R): 25.1 | 3e: ΔTm / °C ^a) (T-Loop): 6.5; ΔTm / °C ^a) (KRAS21R): 22.0 | 3d: ΔTm / °C ^a) (T-Loop): 5.6; ΔTm / °C ^a) (KRAS21R): 19.9 | 2d: ΔTm / °C ^a) (T-Loop): 6.1; ΔTm / °C ^a) (KRAS21R): 15.1 | 2a: ΔTm / °C ^a) (T-Loop): 1.5; ΔTm / °C ^a) (KRAS21R): 4.4 […]
Oligonucleotide sequences were purchased from Eurofins MWG Synthesis GmbH, Germany or STAB VIDA Genomics Lab, Caparica, Lisbon, Portugal. The labelled oligonucleotides used in the FRET assays had attached the donor fluorophore FAM (6-carboxyfluorescein) and the acceptor fluorophore TAMRA (6-carboxytetramethylrhodamine): KRAS21R: 5′-FAM-[…]-TAMRA-3′; KRAS32R: 5′-FAM-[…]-TAMRA-3′; UTR-1: 5′-FAM-GCGGCGGCGGAGG-TAMRA-3′; UTR-2: 5′-FAM-[…]-TAMRA-3; T-Loop:5′-FAM-[…]-TAMRA-3′; F21T: 5′-FAM-[…]-TAMRA-3′. Non-labelled oligonucleotides were used in FRET competition assays and in the spectroscopic studies: ds26: - d(5′-CAATCGGATCGAATT CGATCCGATTG-3′); KRAS21R: 5′-[…]-3′; HT21: 5′-[…]-3′. Each oligonucleotide was initially diluted to a storage solution at 100 μM in nuclease-free water (not DEPC-treated), purchased from Ambion Applied Biosystems UK.
The ability of indolo[3,2-c]quinolines to stabilize DNA sequences was investigated using a Fluorescence Resonance Energy Transfer (FRET) assay as reported elsewhere.
Figure S3 (cont.)| Concentration-dependent (0.1, 0.5, 1, 2, 3, 4 and 5 µM) FRET melting profiles of G4 structures and T-loop DNA with indolo[3,2-c]quinoline derivatives 1a, 2a-g and 3d-j in K-cacodylate buffer (pH 7.4, 60 mM K+). […]
Table S5 | FRET stabilization temperatures (ΔTm) of G4s sequences and ds-DNA (0.2 µM) stabilized by […]

Compared with `CCN(CC)CCCNc1ccc2[nH]c3c(c[n+](C)c4ccc(NCCCN(CC)CC)cc34)c2c1.[Cl-]` [3d], `CCN(CC)CCCNc1ccc2c(c1)[nH]c1c2c[n+](C)c2ccc(NCCCN(CC)CC)cc12.[Cl-]` [3e] is higher in “FRET stabilization temperature ΔTm (KRAS21R)” value: 19.9 °C for the first, 22.0 °C for the second.

First: CCN(CC)CCCNc1ccc2c(c1)c1[nH]c3ccccc3c1c[n+]2C [2d]
Second: C[n+]1ccc(-c2c3nc(c(-c4cc[n+](C)cc4)c4ccc([nH]4)c(-c4cc[n+](C)cc4)c4ccc([nH]4)c(-c4cc[n+](C)cc4)c4nc2C=C4)C=C3)cc1 [TMPyP4, reference compound]
The “FRET stabilization temperature ΔTm (KRAS21R)” value of the first is lower: 15.1 °C for the first, 25.1 °C for the second.

Test system: MiaPaCa2 (pancreatic)
Assay: SRB short-term cytotoxicity assay, MiaPaCa2
Format: cell-based
Conditions: Homo sapiens, MIA PaCa-2, 96 h
Protocol: Short-term anti-proliferative assays were carried out by two different assays using a panel of human cancer and non-malignant human cell lines. […] The transformed human embryonic kidney cell line HEK293T (wt KRAS) was sensitive to all tested drugs, including TMPyP4, a cationic porphyrin established as a G4 ligand, as well as the anticancer drug 5-fluorouracil (5-FU).
Human cell lines, breast carcinoma (MCF7), lung carcinoma (A549), pancreatic cancer (MIA PaCa2, Panc-1), immortalised telomerase-negative human lung fibroblast (ALT) and normal human lung fibroblast (WI-38), were all purchased from American Type Cell Culture (ATCC). Cell lines were maintained in appropriate medium supplemented with 10% fetal bovine serum (Invitrogen, UK), 2 mM L-glutamine (Invitrogen, Netherlands), and other components as specified by the suppliers. All cell lines were maintained at 37°C, 5% CO2, and routinely passaged. Short-term growth inhibition was measured using the SRB assay as described previously[43] […]
After electrophoretic transfer onto nitrocellulose membranes, immunoblots were blocked with 5% milk solution, and next incubated overnight at 4 °C with primary mouse monoclonal antibody reactive to KRAS/p53 (#sc-30/sc-126; Santa Cruz Biotechnology Inc., Santa Cruz, CA, USA). […] Steady-state protein levels were expressed as mean ±SEM from at least three independent experiments.

`Cn1cc2c3ccccc3nc-2c2cc(Br)ccc21` [2a, 2-bromo-5-methyl-indolo[3,2-c]quinoline] and `CCN(CC)CCCNc1ccc2c(c1)[nH]c1c2c[n+](C)c2ccc(NCCCN(CC)CC)cc12.[Cl-]` [3e] are within 1.5-fold of each other in IC50: 2200 nM for the first, 1980 nM for the second.
